Test [1] relates to tetrabenazine-induced sedation in mice. The test can be described thus: Antitetrabenazine test: prevention of tetrabenazine-induced sedation and depression (exploratory activity and ptosis). The class given is in vivo, mice (Carworth CF1 S female). The settings on record: Mus musculus, po, 1 h. The method, then: This mouse test is predictive of human antidepressant response (Everett, G. M., "The Dopa Response Potentiation Test and Its Use in Screening for Antidepressant Drugs", pp. 164-167 in "Antidepressant Drugs", Proceedings of the First International Symposium, S. Garattini and M. N. G. Dukes, eds., 1967).
Groups of 10 Carworth CF1 S female mice, 18-21 g each, were fasted 1.5 hours and were intubated with a hydroxyguanidine as antagonist to tetrabenazine at oral doses of 5, 25 and 125 mg/kg in 0.20 ml of 1% methyl cellulose (Methocel.) Thirty minutes later the mice were challenged with tetrabenazine, 32 mg/kg intraperitoneally (dissolved in 0.20 ml of 0.05M KCl at pH 2.0). One hour after the hydroxyguanidine compound (30 minutes after tetrabenzine) the mice were examined for signs of exploratory activity and ptosis (eye-lid closure). Normal exploratory activity (relief from sedation) was recorded when a mouse lifted by the tail from a group of 10 in a testing box and placed on a stainless steel testing box lid (12.5 inch × 8 inch × 0.33 inch mesh) either turned its head horizontally 30° or moved to the edge of the screen withi 10 seconds after being placed on the screen. Relief from ptosis was recorded when exactly 2 seconds after placing the mouse facing the observer, lid closure was less than 50% in both eyes.

Test [2] shares this test system. Described as above. The class given is in vivo, mice (Carworth CF1 S female). The following applies: up to 81 mg/kg.
Setting [3] is: tetrabenazine 32 mg/kg i.p. 30 min later, read 1 h after compound, read-out: Antitetrabenazine ED 50, Exploratory.
Where [4] appears, read: tetrabenazine 32 mg/kg i.p. 30 min later, read 1 h after compound, read-out: Antitetrabenazine ED 50, Ptosis (dose which blocked ptosis in 50% of the mice).
Setting [5] is: tested as hydroxyguanidine HCl salt, tetrabenazine 32 mg/kg i.p., read-out: Antitetrabenazine ED 50, Exploratory.
The mark [6] stands for this setting: tested as hydroxyguanidine HCl salt, tetrabenazine 32 mg/kg i.p., read-out: Antitetrabenazine ED 50, Ptosis.

The source of these data is patent publication US3954995A, “Mono-and disubstituted hydroxyguanidines in the treatment of depression” (E. I. Du Pont de Nemours and Company, priority 1974, dated 1976).

Like-named read-outs stand apart in the source and are kept apart here.

As to `COc1ccc(N(C)C(N)=NO)cc1` [Example 14, 1-p-methoxyphenyl-1-methylhydroxyguanidine], the ED50 in test [1] (setting [3]) is > 81 mg/kg; in test [1] (setting [4]), 20.5 mg/kg.

Consider `Cc1ccc(CN(C)C(N)=NO)cc1` [Example 7, 1-p-methylbenzyl-1-methylhydroxyguanidine], for which the ED50 is > 81 mg/kg in test [1] (setting [3]) and 23 mg/kg in test [1] (setting [4]).

For `CN(Cc1ccccc1)C(N)=NO` [Example 2, 1-benzyl-1-methylhydroxyguanidine], the ED50 is > 81 mg/kg in test [1] (setting [5]), 0.43 mg/kg in test [1] (setting [6]), 9 mg/kg in test [1] (setting [3]) and 0.18 mg/kg in test [1] (setting [4]).

For the compound `CN(C(N)=NO)C1CCCCC1` [Example 18, 1-cyclohexyl-1-methylhydroxyguanidine], the figures for the ED50 in test [1] (setting [3]) and in test [1] (setting [4]) were > 81 mg/kg and 9 mg/kg, respectively.

For the compound `NC(=NO)NCc1ccccc1` [Example 19, 1-benzylhydroxyguanidine], the results for the ED50 in test [1] (setting [5]) and in test [1] (setting [6]) were > 81 mg/kg and 12.5 mg/kg, respectively.

On to `CN(C(N)=NO)c1ccccc1` [Example 1, 1-phenyl-1-methylhydroxyguanidine], for which the ED50 was 9 mg/kg in test [1] (setting [5]), 1.1 mg/kg in test [1] (setting [6]), > 81 mg/kg in test [1] (setting [3]) and 1.1 mg/kg in test [1] (setting [4]).

For `Cc1ccc(N(C)C(N)=NO)cc1C` [Example 23, 1-(3,4-xylyl)-1-methylhydroxyguanidine], the ED50 in test [1] (setting [3]) is > 81 mg/kg; in test [1] (setting [4]) it was 4.9 mg/kg.

Turning to `CNC(=NO)Nc1ccccc1` [Example 26, 1-Phenyl-3-methyl-2-hydroxyguanidine], the ED50 in test [1] (setting [3]) was > 81 mg/kg; in test [1] (setting [4]) it was 12.2 mg/kg.

On to `CN(Cc1ccc(Br)cc1)C(N)=NO` [Example 6, 1-p-bromobenzyl-1-methylhydroxyguanidine], for which the ED50 in test [1] (setting [3]) is > 81 mg/kg; in test [1] (setting [4]) it was 17.4 mg/kg.

As to `Cc1cccc(N(C)C(N)=NO)c1` [Example 24, 1-m-tolyl-1-methylhydroxyguanidine], the ED50 in test [1] (setting [4]) amounted to 0.4 mg/kg.

For `COc1ccc(CN(C)C(N)=NO)cc1` [Example 4, 1-p-methoxybenzyl-1-methylhydroxyguanidine], the ED50 in test [1] (setting [3]) is > 81 mg/kg; in test [1] (setting [4]), 59 mg/kg.

Regarding `Cc1ccc(N(C)C(N)=NO)cc1` [Example 13, 1-p-tolyl-1-methylhydroxyguanidine], the ED50 in test [1] (setting [3]) was determined as 3 mg/kg; in test [1] (setting [4]), 0.88 mg/kg.

With `CN(Cc1ccc(Cl)cc1)C(N)=NO` [Example 10, 1-p-chlorobenzyl-1-methylhydroxyguanidine], the ED50 is > 81 mg/kg in test [1] (setting [3]) and 10.8 mg/kg in test [1] (setting [4]).

As to `CN(Cc1cccc(Cl)c1)C(N)=NO` [Example 20, 1-m-chlorobenzyl-1-methylhydroxyguanidine], the figures for the ED50 in test [1] (setting [3]) and in test [1] (setting [4]) were > 81 mg/kg and 0.4 mg/kg, respectively.

With `CN(Cc1ccc(F)cc1)C(N)=NO` [Example 5, 1-p-fluorobenzyl-1-methylhydroxyguanidine], the ED50 was > 81 mg/kg in test [1] (setting [3]) and 8.1 mg/kg in test [1] (setting [4]).

For `CN(Cc1cccc([N+](=O)[O-])c1)C(N)=NO` [Example 21, 1-m-nitrobenzyl-1-methylhydroxyguanidine], the ED50 in test [1] (setting [3]) was > 81 mg/kg; in test [1] (setting [4]) it was 66 mg/kg.

For `CCN(C(N)=NO)c1ccccc1` [Example 12, 1-phenyl-1-ethylhydroxyguanidine], the ED50 in test [1] (setting [3]) amounted to 15.6 mg/kg; in test [1] (setting [4]), 3 mg/kg.

Take `CNC(=NO)NCc1ccccc1` [Example 27, 1-Benzyl-3-methyl-2-hydroxyguanidine]: in test [2], the “Activity in the antitetrabenazine screen” value was “inactive”.

For `CCCN(C(N)=NO)c1ccccc1` [Example 17, 1-phenyl-1-n-propylhydroxyguanidine], the ED50 in test [1] (setting [3]) is > 81 mg/kg; in test [1] (setting [4]), 20 mg/kg.

In the case of `CN(Cc1ccc(Cl)c(Cl)c1)C(N)=NO` [Example 9, 1-(3,4-dichlorobenzyl)-1-methylhydroxyguanidine], the values for the ED50 in test [1] (setting [3]) and in test [1] (setting [4]) were > 81 mg/kg and 4.8 mg/kg, respectively.

As for `CN(C(N)=NO)c1cccc(Cl)c1` [Example 22, 1-m-chlorophenyl-1-methylhydroxyguanidine], the ED50 in test [1] (setting [3]) was > 81 mg/kg; in test [1] (setting [4]), 0.7 mg/kg.

For the compound `CN(Cc1ccc([N+](=O)[O-])cc1)C(N)=NO` [Example 8, 1-p-nitrobenzyl-1-methylhydroxyguanidine], the ED50 in test [1] (setting [3]) is > 81 mg/kg; in test [1] (setting [4]), 47 mg/kg.

Turning to `CCN(Cc1ccccc1)C(N)=NO` [Example 3, 1-benzyl-1-ethylhydroxyguanidine], the figures for the ED50 in test [1] (setting [3]) and in test [1] (setting [4]) were 9 mg/kg and 0.39 mg/kg, respectively.

Consider `CN(C(N)=NO)C1CCCC1` [Example 25, 1-cyclopentyl-1-methylhydroxyguanidine], for which the results for the ED50 in test [1] (setting [5]) and in test [1] (setting [6]) were > 81 mg/kg and 3 mg/kg, respectively.

`CN(C(N)=NO)c1ccc(Cl)cc1` [Example 11, 1-p-chlorophenyl-1-methylhydroxyguanidine]: the ED50 turned out to be 81 mg/kg in test [1] (setting [3]) and 0.82 mg/kg in test [1] (setting [4]).
